Assay results from ChEMBL document CHEMBL3779843, “Discovery of a Potent Class I Protein Arginine Methyltransferase Fragment Inhibitor” (J Med Chem, 2016).
Activity calls are given as the source filed them. The calls are words filed in the database; no cut-off is given here.

Assays:
[1] = biological target: T1, Protein arginine N-methyltransferase 6 (Homo sapiens, UniProt Q96LA8); assay: Inhibition of N-terminal hexa-His tagged human PRMT6 expressed in Sf9 cells using 24 residues of biotin labelled histone4 substrate and tritiated 3H-S-adenosylmethionine by scintillation proximity assay
T1 sequence (Q96LA8 whole entry): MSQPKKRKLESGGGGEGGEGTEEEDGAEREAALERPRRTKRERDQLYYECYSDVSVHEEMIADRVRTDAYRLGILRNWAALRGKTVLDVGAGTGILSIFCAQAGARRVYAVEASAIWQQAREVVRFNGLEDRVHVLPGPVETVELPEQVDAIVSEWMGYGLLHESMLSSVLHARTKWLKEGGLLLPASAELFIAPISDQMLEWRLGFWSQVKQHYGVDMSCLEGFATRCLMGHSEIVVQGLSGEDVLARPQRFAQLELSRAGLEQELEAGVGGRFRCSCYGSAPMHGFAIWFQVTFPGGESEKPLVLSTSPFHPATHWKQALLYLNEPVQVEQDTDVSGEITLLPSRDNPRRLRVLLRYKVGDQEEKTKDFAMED

[2] = biological target: T2, Protein arginine N-methyltransferase 7 (Homo sapiens, UniProt Q9NVM4); assay: Inhibition of human PRMT7 using 24 residues of biotin labelled histone4 substrate and tritiated 3H-S-adenosylmethionine by scintillation proximity assay
T2 sequence (Q9NVM4 whole entry): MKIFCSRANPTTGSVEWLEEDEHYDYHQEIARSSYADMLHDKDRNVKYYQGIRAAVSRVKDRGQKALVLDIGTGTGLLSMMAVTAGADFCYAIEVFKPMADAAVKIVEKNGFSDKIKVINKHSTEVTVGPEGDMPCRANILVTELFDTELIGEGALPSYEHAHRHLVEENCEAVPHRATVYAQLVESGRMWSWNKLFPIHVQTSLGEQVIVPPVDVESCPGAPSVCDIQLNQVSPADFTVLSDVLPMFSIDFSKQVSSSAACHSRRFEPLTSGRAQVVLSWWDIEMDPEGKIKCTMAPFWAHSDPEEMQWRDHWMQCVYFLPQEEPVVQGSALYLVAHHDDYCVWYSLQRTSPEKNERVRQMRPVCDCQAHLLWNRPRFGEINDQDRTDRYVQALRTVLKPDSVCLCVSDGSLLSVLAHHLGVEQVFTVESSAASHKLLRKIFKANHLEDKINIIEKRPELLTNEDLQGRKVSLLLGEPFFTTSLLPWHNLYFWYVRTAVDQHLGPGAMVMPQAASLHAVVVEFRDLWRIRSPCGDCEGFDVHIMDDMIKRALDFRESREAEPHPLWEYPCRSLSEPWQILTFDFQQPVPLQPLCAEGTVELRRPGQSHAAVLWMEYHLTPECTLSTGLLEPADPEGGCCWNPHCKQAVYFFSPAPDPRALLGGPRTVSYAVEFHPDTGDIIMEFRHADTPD

[3] = biological target: T3, Histone-arginine methyltransferase CARM1 (Homo sapiens, UniProt Q86X55); assay: Inhibition of human PRMT4 using 24 residues of biotin labelled histone4 substrate and tritiated 3H-S-adenosylmethionine by scintillation proximity assay
T3 sequence (Q86X55 whole entry): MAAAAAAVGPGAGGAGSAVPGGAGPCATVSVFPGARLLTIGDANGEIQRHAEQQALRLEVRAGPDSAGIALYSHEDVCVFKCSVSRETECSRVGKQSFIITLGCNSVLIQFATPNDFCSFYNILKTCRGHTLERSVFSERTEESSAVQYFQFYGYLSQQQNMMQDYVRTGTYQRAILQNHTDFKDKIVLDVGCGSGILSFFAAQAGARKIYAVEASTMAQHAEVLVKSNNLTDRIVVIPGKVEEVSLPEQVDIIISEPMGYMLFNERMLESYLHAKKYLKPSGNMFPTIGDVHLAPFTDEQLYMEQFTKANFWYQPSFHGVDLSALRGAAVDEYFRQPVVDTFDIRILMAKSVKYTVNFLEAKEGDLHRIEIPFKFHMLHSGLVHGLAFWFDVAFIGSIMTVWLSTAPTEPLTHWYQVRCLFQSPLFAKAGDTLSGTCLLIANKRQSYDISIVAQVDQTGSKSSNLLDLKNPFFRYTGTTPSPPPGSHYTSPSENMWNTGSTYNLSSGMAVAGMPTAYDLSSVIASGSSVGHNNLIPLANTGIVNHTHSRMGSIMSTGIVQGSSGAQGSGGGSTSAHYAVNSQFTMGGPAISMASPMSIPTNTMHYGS

[4] = biological target: T3, Histone-arginine methyltransferase CARM1; assay: (§1) Inhibition of CARM1 (unknown origin) using 24 residues of biotin labelled histone4 substrate and tritiated 3H-S-adenosylmethionine by scintillation proximity assay
[5] = biological target: Protein arginine N-methyltransferase 5 (Homo sapiens, UniProt O14744); assay: Inhibition of human PRMT5 using 24 residues of biotin labelled histone4 substrate and tritiated 3H-S-adenosylmethionine by scintillation proximity assay
Protein arginine N-methyltransferase 5, sequence (O14744 whole entry): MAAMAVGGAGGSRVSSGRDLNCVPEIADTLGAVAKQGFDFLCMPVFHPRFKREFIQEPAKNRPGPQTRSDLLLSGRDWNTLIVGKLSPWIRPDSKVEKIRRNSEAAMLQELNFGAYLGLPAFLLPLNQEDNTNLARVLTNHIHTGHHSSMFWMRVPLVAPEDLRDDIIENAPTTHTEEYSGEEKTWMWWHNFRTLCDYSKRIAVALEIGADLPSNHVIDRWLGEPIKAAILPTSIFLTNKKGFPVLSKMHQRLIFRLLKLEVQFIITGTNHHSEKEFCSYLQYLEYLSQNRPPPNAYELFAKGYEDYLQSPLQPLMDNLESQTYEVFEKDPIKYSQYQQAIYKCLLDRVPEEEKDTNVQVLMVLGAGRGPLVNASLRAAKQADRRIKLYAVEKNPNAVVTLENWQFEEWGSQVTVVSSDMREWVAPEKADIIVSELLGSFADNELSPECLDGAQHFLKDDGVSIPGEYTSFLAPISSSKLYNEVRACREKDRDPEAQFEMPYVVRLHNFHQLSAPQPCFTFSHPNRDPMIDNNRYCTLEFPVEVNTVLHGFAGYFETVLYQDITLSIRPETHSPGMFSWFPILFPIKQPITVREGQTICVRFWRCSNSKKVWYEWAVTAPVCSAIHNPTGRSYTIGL

[6] = biological target: Protein arginine N-methyltransferase 3 (Homo sapiens, UniProt O60678); assay: Inhibition of human PRMT3 using 24 residues of biotin labelled histone4 substrate and tritiated 3H-S-adenosylmethionine by scintillation proximity assay
Protein arginine N-methyltransferase 3, sequence (O60678 whole entry): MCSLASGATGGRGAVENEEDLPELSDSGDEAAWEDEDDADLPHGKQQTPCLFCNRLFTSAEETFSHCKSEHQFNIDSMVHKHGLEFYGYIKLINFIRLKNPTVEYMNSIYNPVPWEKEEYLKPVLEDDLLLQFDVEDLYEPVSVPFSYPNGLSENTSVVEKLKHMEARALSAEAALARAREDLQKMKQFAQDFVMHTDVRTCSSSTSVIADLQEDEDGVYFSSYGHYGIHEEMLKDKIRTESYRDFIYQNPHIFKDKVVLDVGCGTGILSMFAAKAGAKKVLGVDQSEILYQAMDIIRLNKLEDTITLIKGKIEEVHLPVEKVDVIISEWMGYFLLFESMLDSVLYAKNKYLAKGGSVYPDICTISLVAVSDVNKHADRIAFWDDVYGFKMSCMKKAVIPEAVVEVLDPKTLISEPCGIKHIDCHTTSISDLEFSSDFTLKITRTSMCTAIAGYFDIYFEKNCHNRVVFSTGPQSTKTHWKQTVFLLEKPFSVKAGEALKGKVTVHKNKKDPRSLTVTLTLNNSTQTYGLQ

[7] = biological target: Protein arginine N-methyltransferase 8 (Homo sapiens, UniProt Q9NR22); assay: Inhibition of human PRMT8 using 24 residues of biotin labelled histone4 substrate and tritiated 3H-S-adenosylmethionine by scintillation proximity assay
Protein arginine N-methyltransferase 8, sequence (Q9NR22 whole entry): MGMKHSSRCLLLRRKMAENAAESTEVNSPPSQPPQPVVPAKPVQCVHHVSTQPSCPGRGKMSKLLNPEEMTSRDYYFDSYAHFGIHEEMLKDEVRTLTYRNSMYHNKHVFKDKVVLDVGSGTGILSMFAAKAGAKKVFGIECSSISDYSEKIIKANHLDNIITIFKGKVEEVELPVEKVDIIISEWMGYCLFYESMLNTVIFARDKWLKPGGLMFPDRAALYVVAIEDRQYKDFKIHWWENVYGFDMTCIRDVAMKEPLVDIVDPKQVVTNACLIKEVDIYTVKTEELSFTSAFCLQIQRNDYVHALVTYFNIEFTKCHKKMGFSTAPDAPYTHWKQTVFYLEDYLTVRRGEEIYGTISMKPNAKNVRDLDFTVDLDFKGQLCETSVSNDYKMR

[8] = biological target: Protein arginine N-methyltransferase 1 (Homo sapiens, UniProt Q99873); assay: Inhibition of human PRMT1 using 24 residues of biotin labelled histone4 substrate and tritiated 3H-S-adenosylmethionine by scintillation proximity assay
Protein arginine N-methyltransferase 1, sequence (Q99873 whole entry): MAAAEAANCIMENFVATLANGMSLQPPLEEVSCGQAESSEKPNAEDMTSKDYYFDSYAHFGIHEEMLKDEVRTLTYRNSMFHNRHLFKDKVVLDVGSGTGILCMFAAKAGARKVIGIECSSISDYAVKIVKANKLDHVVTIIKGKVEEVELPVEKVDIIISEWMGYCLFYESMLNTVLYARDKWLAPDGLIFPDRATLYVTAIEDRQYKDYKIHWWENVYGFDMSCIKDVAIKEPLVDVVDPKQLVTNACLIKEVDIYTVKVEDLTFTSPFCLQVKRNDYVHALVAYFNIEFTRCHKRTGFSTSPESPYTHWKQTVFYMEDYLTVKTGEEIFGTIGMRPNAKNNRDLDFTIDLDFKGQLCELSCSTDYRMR

[9] = biological target: T3, Histone-arginine methyltransferase CARM1; assay: Inhibition of GST-tagged CARM1 (unknown origin) using tritiated S-adenosylmethionine as substrate at 6 nM by methylation- based filter assay
[10] = biological target: T4, Histone-arginine methyltransferase CARM1 (Homo sapiens) (UniProt Q86X55); assay: as §1
T4 sequence (whole entry): T3 sequence (Q86X55 whole entry)

[11] = biological target: T1, Protein arginine N-methyltransferase 6; assay: Inhibition of FLAG-tagged human PRMT6 expressed in HEK293 cells assessed as reduction in H3R2 global methylation incubated for 20 hrs by Western blot method; type: cell-based
[12] = biological target: T1, Protein arginine N-methyltransferase 6; assay: Binding affinity to Inhibition of N-terminal hexa-His tagged human PRMT6 expressed in Sf9 cells by ITC method
[13] = biological target: Protein arginine N-methyltransferase 6 (Homo sapiens, UniProt Q96LA8, L267E); assay: Inhibition of PRMT6 L267E mutant (unknown origin) using 24 residues of biotin labelled histone4 substrate and tritiated 3H-S-adenosylmethionine by scintillation proximity assay
Protein arginine N-methyltransferase 6 (Homo sapiens, UniProt Q96LA8, L267E), sequence (Q96LA8 whole entry L267E): as the sequence (Q96LA8 whole entry) above, with L267E counted along it

IC50 [1]	IC50 [2]	IC50 [3]	IC50 [4]	IC50 [5]	IC50 [6]	IC50 [7]	SMILES	also measured
146 µM							CNCc1cccc(-c2ccco2)c1	
	Not Active	200 nM	200 nM	Not Active	> 500 µM	15 µM	CNCCN1CCC(C)CC1	IC50 [8]: 48 µM
5 µM	Not Active	3000 nM	3000 nM	Not Active	35 µM	7 µM	CNCCN(C)C	
104 µM							CNCc1cccc(-c2cccnc2)c1	
							C[C@@H](N)C(=O)NCc1cccc(-n2nc(C(F)(F)F)cc2-c2nnc(-c3cccc4[nH]ccc34)o2)c1	IC50 [9]: 27 nM
> 200 µM	Not Active	105000 nM	105000 nM	Not Active	> 1000 µM	> 200 µM	CCNC(=O)[C@@H](C)N	IC50 [8]: > 1000 µM
							CNCCN1CCC(c2ccc3[nH]c(-c4ccccc4OC)c(Cl)c3c2)CC1	inhibition [10]: Active
430 µM							Nc1ccc(S(=O)(=O)Nc2nccs2)cc1 [SULFATHIAZOLE]	
46 µM							Cc1nc(N)sc1-n1ccc(C(F)(F)F)n1	

SMILES	IC50 [1]	IC50 [2]	IC50 [3]	IC50 [4]	IC50 [5]	IC50 [6]	IC50 [7]	also measured
NCCN1CCC(Cc2ccccc2)CC1	0.23 µM	Not Active	1000 nM	1000 nM	Not Active	19 µM	2.1 µM	IC50 [11]: 21 µM; Kd [12]: 970 nM; IC50 [13]: 390 nM
